Columns and labels:
[1] = In vitro iontophoretic delivery of MTX through hairless (nude) rat skin, Franz diffusion cells; format: in vitro ADME
Method: The delivery of MTX under 30 mins of iontophoresis (0.4 mA/cm^2) was studied at buffer strengths 0.05-0.5 M and drug concentrations 10-20 mg/ml. The effect of current density and time of application on the delivery of MTX is studied by optimizing the full-factorial design. The current density (X1) and time of application (X2) are the independent factors chosen for the factorial design with 4 and 5 levels, respectively in the range of 0.05-0.5 mA (X1) and 10-120 mins (X2).
In vitro iontophoretic experiments (n≧3) were performed using freshly excised hairless rat skin mounted on vertical Franz diffusion cells with stratum corneum facing towards the donor chamber. The donor compartment contained 15 mg/ml of MTX in phosphate buffer of pH 7.4 (0.25 M) and the receptor compartment contained phosphate buffer of pH 7.4 (0.25 M) with 75 mM NaCl.
A silver-silver chloride electrode (cathode) was placed in the donor chamber and silver wire (anode) was placed in the receptor compartment. Samples were taken at periodic intervals and were analyzed by HPLC, using YMC RP 18 column. Mobile Phase was composed of monobasic sodium phosphate (10%) and Tris HCl buffer (90%). Flow rate was 1.5 ml/min and detection wavelength was 303 nm.

[2] = cited from earlier work

**Q.** Which “delivery at 15 versus 20 mg/ml” value ([1]; 0.25 M buffer strength, 30 mins iontophoresis 0.4 mA/cm^2) does the source give for `CN(Cc1cnc2nc(N)nc(N)c2n1)c1ccc(C(=O)N[C@@H](CCC(=O)O)C(=O)O)cc1` [MTX, Methotrexate] here?
**A.** Its value is “not statistically different”.

**Q.** What about the “amount of drug delivered, effect of MTX concentration 10 to 15 mg/ml” value ([1]; 0.25 M buffer strength, 30 mins iontophoresis 0.4 mA/cm^2, FIG. 2) of the same molecule?
**A.** The value was “increased”.

**Q.** And the “cumulative amount delivered, increase in current density from 0.05 to 0.5 mA” value ([1]; 10 min iontophoresis)?
**A.** Its value is “did not show a statistically significant increase”.

**Q.** What about the “cumulative amount of MTX delivered across hairless rat skin, effect of buffer ionic strength” value ([1]; 30 mins iontophoresis 0.4 mA/cm^2, buffer strengths 0.05-0.5 M, FIG. 1) of the same molecule?
**A.** Its value is “increased with decrease in ionic strength of the buffer”.

**Q.** And the “delivery, increase in time of application from 10-120 mins” value ([1]; at 0.05 mA)?
**A.** The value was “did not show any enhanced delivery”.

**Q.** What about the maximal flux ([1]; buffer strength 0.25 M, drug concentration 15 mg/ml, across hairless rat skin) of the same molecule?
**A.** Its maximal flux is “about 0.6 μg/cm^2-hr”.

**Q.** What about the “cumulative amount of drug delivered versus model prediction” value ([1]; current density 0.4 mA/cm^2, ITP for 30 mins) of the same molecule?
**A.** Its value is “in between the lower and upper 95% confidence level”.

**Q.** And the “cumulative amount of MTX delivered, effect of increase in current density and time of application” value ([1]; factorial design, 0.05-0.5 mA, 10-120 mins, 15 mg/ml MTX, phosphate buffer pH 7.4 0.25 M, FIG. 3, 4)?
**A.** The value was “also increased”.

**Q.** And the “charge at physiological pH” value [2]?
**A.** Its value is “negatively charged”.

From patent US20070248630A1, “PHARMACEUTICAL FORMULATIONS FOR IONTOPHORETIC METHOTREXATE DELIVERY” (priority 2006, published 2007)
